From US20180235934A1, “NORADRENERGIC DRUG TREATMENT OF OBSTRUCTIVE SLEEP APNEA” (Massachusetts Institute of Technology, priority 2015, published 2018)

Experiments:
[1] = system: urethane-anesthetized rats; experiment: Hypoglossal nerve activity and hLTF under spontaneous REM sleep with episodic airway occlusion; assay type: in vivo, rat
Method: (§1) Recurrent obstructive apneas during spontaneous breathing in urethane-anesthetized rats were simulated by applying 10 or 12 episodes of airway occlusion at one episode per min.
(§2) All values are expressed as mean±SE.
Experiments were performed on 5 adult male rats (body weight 270-550 g) under urethane anesthesia, pancuronium paralysis and artificial ventilation. Unlike other anesthetics, urethane anesthesia retains the sleep-like alternations in brain state and in breathing pattern and chemosensitivity similar to those seen in natural sleep^58-59 (including state-dependent modulations of GG and abdominal respiratory-related activities^40), while also circumventing the highly fragmented natural sleep pattern in rodents^40. As shown in FIGS. 12A-12B, during periods of REM-like sleep (as indicated by increased hippocampal activity) hypoglossal nerve discharge was markedly depressed (by 44.8±9.1%, P<0.01). […] In addition, episodic end-expiratory airway occlusion (lasting 15 seconds each, 1 episode per minute; FIG. 12A, arrows) caused marked time-dependent increases in the amplitude of hypoglossal nerve discharge during each airway occlusion episode.

[2] = system: urethane-anesthetized rats; experiment: Hypoglossal nerve activity and hLTF under carbachol (cholinergic)-induced REM sleep-like state with episodic airway occlusion; assay type: in vivo, rat
From the text: (§3) The EMGs were amplified (CyberAmp 380, Axon Instruments, Union City), integrated (time constant 0.1 s, MA821 RSP Moving Averager, CWE) and sampled at 10 KHz into a Dell PC with LabView software (National Instruments, Austin, Tex.).
A REM sleep-like state in urethane-anesthetized rats was induced by microinjection of the cholinergic agonist carbachol at unilateral dorsomedial pons^1,14 and was detected by the decrease of hypoglossal/GG EMG activity and the appearance of hippocampal theta discharge. The latter was recorded by using a parallel bipolar wire electrode inserted into the hippocampal CA1 region at the following stereotaxic coordinates: 3.7 mm caudal from Bregma, 2.2 mm lateral from midline, and depth of 2.4 mm from brain surface.
as §1, §2

[3] = system: urethane-anesthetized spontaneously breathing rats
Method: All experimental protocols were reviewed and approved by the responsible Committee on Animal Care in accordance with published guidelines. Experiments were performed on 45 male adult Sprague-Dawley rats (300-400 g, Charles River Laboratories, Wilmington, Mass.) under urethane anesthesia (initial dose 1.5 g/kg, i.p.; supplemental dose 1/10 of initial dose, i.p. or i.v. when necessary). The femoral vein and artery were cannulated for intravenous infusion and blood pressure monitoring, respectively. Rectal temperature was maintained at 36.5-37.5° C. with a thermostatic heating pad.
After sub-laryngeal tracheal cannulation with a Y-shaped tracheal cannula, two isolated silver wires (O.D. 0.127 mm) were implanted into the genioglossus and diaphragm for EMG recording. The wire tips were exposed for 1 mm and separated by approximately 5 mm once inserted into the muscle. In some rats, the medial branch of the hypoglossal nerve (which innervates the GG and other tongue protrusion muscles) and phrenic nerve (which innervates the diaphragm) were isolated and severed. After the rat was mounted onto the stereotaxic frame, the central end of the nerve was exposed from the back of the neck (dorsal approach) and mounted onto parallel bipolar wire electrodes for recording. These rats were artificially ventilated with oxygen-enriched (40% O2) medical air and paralyzed with pancuronium bromide.
as §3, with “Tex.). The recordings were stabilized for at least 1 hour before any data collection and experimental manipulations were performed.” for “Tex.).”
For brain microinjections, an occipital craniostomy was performed to expose the brain surface. A glass micropipette (tip O.D. 10-20 μm) filled with chemical solution was inserted to the target structure according to its stereotaxic coordinates. Injections (25-50 nl per injection) were performed by applying pressure pulses to the micropipette and confirmed by the movement of the intrapipette solution meniscus. All chemicals were purchased from Sigma-Aldrich (Sigma, St. Louis, Mo.) and dissolved in ACSF at concentration of 10 mM. Stereotaxic coordinates of the A7 region: 2.3-2.6 mm from midline, 0-0.5 mm rostral from interaural level, 8.0-8.5 mm from lambda surface; A5 region: 0-0.5 mm caudal from interaural level, 2.2-2.7 mm from midline, 9.5-10 mm from lambda surface; dorsomedial pons: 1-1.5 mm from midline, 0.2-0.7 mm rostral from interaural level, 7.5-8.5 mm from lambda surface.
Recurrent obstructive apneas during spontaneous breathing in urethane-anesthetized rats were simulated by applying 10 or 12 episodes of airway occlusion at one episode per min. Each episode of airway occlusion started from the end of an expiration (in spontaneous breathing rats as described in Tadjalli et al., J Neurosci 30, 16886-16895 (2010)^5) or lung deflation (in ventilated rats) and lasted 10-12 sec. […]
The amplitudes of the integrated genioglossus EMG (or hypoglossal nerve discharge) and integrated diaphragm EMG (or phrenic nerve discharge) recordings in each respiratory cycle were measured and normalized to the control baseline values. All values are expressed as mean±SE. […]

[4] = system: healthy subjects; details: cited from earlier work
[5] = system: TH-cre transgenic Sprague-Dawley rats; experiment: Episodic optogenetic stimulation of A7 neurons, HM activity and hLTF; details: 0.5 mg/kg i.v.
[6] = system: urethane-anesthetized rats; experiment: Hypoglossal amplitude and obstructive apnea-induced hLTF after yohimbine, focal at bilateral A7 and A5 regions or intravenous (no REM induction); assay type: in vivo, rat
From the text: Recurrent obstructive apneas during spontaneous breathing in urethane-anesthetized rats were simulated by applying 10 or 12 episodes of airway occlusion at one episode per min. […] All values are expressed as mean±SE.

[7] = clinically recommended dose range; cited from earlier work
[8] = injection at bilateral A7 region
[9] = intravenous 0.5 mg/kg, n=5, vs control n=12

## CC1c2ccccc2CN1CC1=NCCN1 (stereo not shown) [BRL44408, 2-[2H-(1-Methyl-1,3-dihydroisoindole)methyl]-4,5-dihydroimidazole]
[1]; 0.2 mg/kg i.v., 5 rats
  hypoglossal discharge (baseline) during spontaneous REM-like sleep: effectively restored the hypoglossal discharge to normal baseline level
[1]; 0.2 mg/kg i.v., throughout spontaneous REM sleep
  hypoglossal activity before, during or after episodic airway occlusion: at or above normal baseline level

## C[N+](C)(C)CCOC(N)=O [carbachol]
[2]; focal carbachol injection at pontine dorsomedial reticular formation, vagi-intact rats
  respiratory-related hypoglossal activity, decrease on transition to REM-like sleep: ~39%

## Clc1cccc(Cl)c1N=C1NCCN1 [clonidine]
[3]; application at bilateral A7 or A5 region
  tonic component of GG activity recruited during airway obstruction: strongly suppressed
[3]; injection at bilateral A5 region, n=6
  baseline genioglossus activity: not significantly reduced
[3]; [8]
  facilitation of hypoglossal activity during airway occlusion: markedly attenuated
  hypoglossal long-term facilitation: totally abolished
[3]; injection at bilateral A7 region (~50 nl at 5 mM per site)
  integrated genioglossus EMG amplitude, reduction from pre-injection baseline: ~12%

## CNCCCN1c2ccccc2CCc2ccccc21 [desipramine]
[4]; healthy subjects, non-REM sleep
  tonic component of GG activity: increased the tonic component of GG activity
[4]; healthy subjects
  inspiratory-phasic component of GG activity: failed to increase the inspiratory-phasic component of GG activity
[4]; in vivo
  effect on REM sleep: inhibit REM sleep

## COc1cc2nc(N3CCN(C(=O)c4ccco4)CC3)nc(N)c2cc1OC [prazosin]
[5]
  HM activity: decreased
  hLTF after episodic optogenetic stimulation of A7 neurons: no longer resulted in hLTF

## COC(=O)[C@@H]1[C@H]2C[C@H]3c4[nH]c5ccccc5c4CCN3C[C@@H]2CC[C@@H]1O [yohimbine, Yohimbine]
[6]; focal injection at bilateral A7 and A5 regions (50 nl at 2.5 mM per site), n=5, P<0.01
  baseline HM activity: significant increase of baseline HM activity
[6]; focal injection at bilateral A7 and A5 regions, P<0.05
  hLTF during obstructive apnea episodes and up to 20 min afterwards: enhancement of hLTF
[6]; [9]
  baseline hypoglossal amplitude before episodic airway occlusion: augmented baseline hypoglossal amplitude
  hypoglossal amplitude during first and last airway occlusion episodes and 5 and 20 min after: facilitated hypoglossal amplitude
[2]; systemic yohimbine 0.5-1.0 mg/kg i.v., cholinergic-induced REM sleep, n=7, P<0.01
  baseline HM activity: rise of baseline HM activity above the control level
[2]; systemic yohimbine 0.5-1.0 mg/kg i.v., cholinergic-induced REM sleep, up to 20 min after episodic obstructive apnea
  obstructive apnea-induced hLTF: potently reversed the blunting of obstructive apnea-induced hLTF
[1]; i.v., rats, REM sleep
  dose that effectively rescued first- and second-line motor defenses against OSA under REM sleep: > 0.25 mg/kg
[7]
  effect on REM sleep: does not disrupt REM sleep
  weight gain: does not disrupt REM sleep or cause weight gain
